# What was measured:
# pigweed [1] = assay: Test A preemergence; assay type: in vivo, Amaranthus retroflexus
# Summary of the method: (§1)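 Pre- and postemergence greenhouse screen. Soil: loam + sand. Spray carrier: solvent mixture, non-phytotoxic, with surfactant. Post timing at 1–2 leaves, height 2–10 cm. Readout: visual injury on a 0–100 scale roughly 10 days after application, untreated plants as reference.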
# barnyardgrass [2] = assay: Test A postemergence; assay type: in vivo, Echinochloa crus-galli
# Summary of the method: as §1
# pigweed [3] = assay: Test A postemergence; assay type: in vivo, Amaranthus retroflexus
# Summary of the method: as §1
# rice = assay: Test B flooded paddy test; assay type: in vivo, Oryza sativa; conditions: Flood, 250 g ai/ha, 0 to 100 scale where 0 is no effect and 100 is complete control
# Summary of the method: (§2)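 Post-emergence paddy-water application at the 2-leaf stage, with 3 cm flood kept for the whole test. Response was judged visually relative to controls after 13 to 15 greenhouse days, 0 indicating no effect and 100 complete control.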
# barnyardgrass [4] = assay: Test B flooded paddy test; assay type: in vivo, Echinochloa crus-galli; conditions: Flood, 250 g ai/ha, 0 to 100 scale where 0 is no effect and 100 is complete control
# Summary of the method: as §2
# wheat, winter = assay: Test C preemergence; assay type: in vivo, Triticum aestivum
# Summary of the method: (§3)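 Rated visually on 0–100 (100 = complete control) after 13–15 days under glass. Treatments went onto freshly seeded loam/sand soil or onto emerged plants at the 1- to 4-leaf stage, using a surfactant-containing solvent formulation.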
# morningglory = assay: Test C preemergence; assay type: in vivo, Ipomoea coccinea
# Summary of the method: as §3
# soybean = assay: Test C preemergence; assay type: in vivo, Glycine max
# Summary of the method: as §3
# barnyardgrass [5] = assay: Test C preemergence; assay type: in vivo, Echinochloa crus-galli
# Excerpt: (§4) Seeds of plant species selected from blackgrass (Alopecurus myosuroides), Italian ryegrass (Lolium multiflorum), wheat, winter (winter wheat, Triticum aestivum), galium (catchweed bedstraw, Galium aparine), corn (Zea mays), large (Lg) crabgrass (Digitaria sanguinalis), giant foxtail (Setaria faberii), johnsongrass (Sorghum halepense), lambsquarters (Chenopodium album), morningglory (Ipomoea coccinea), yellow nutsedge (Cyperus esculentus), pigweed (Amaranthus retroflexus), ragweed (common ragweed, Ambrosia elatior), soybean (Glycine max), barnyardgrass (Echinochloa crus-galli), oilseed rape (Brassica napus), waterhemp (common waterhemp, Amaranthus rudis), kochia (Kochia scoparia), wild oat (Avena fatua), surinam grass (Brachiaria decumbens), foxtail, green (green foxtail, Setaria viridis), goosegrass (Eleusine indica), bromegrass, downy (downy bromegrass, Bromus tectorum), nightshade (eastern black nightshade, Solanum ptycanthum), cocklebur (common cocklebur, Xanthium strumarium), cupgrass, woolly (woolly cupgrass, Eriochloa villosa), bermudagrass (Cynodon dactylon), sunflower, (common oilseed sunflower, Helianthus annuus), Russian thistle (Salsola kali), and velvetleaf (Abutilon theophrasti) were planted into a blend of loam soil and sand and treated preemergence with test chemicals formulated in a non-phytotoxic solvent mixture which included a surfactant.
# (§5) At the same time, plants selected from these crop and weed species and also barley, winter (winter barley, Hordeum vulgare), windgrass (Apera spica-venti), chickweed (common chickweed, Stellaria media), deadnettle (henbit deadnettle, Lamium amplexicaule), and canarygrass (littleseed canarygrass, Phalaris minor) were planted in pots containing Redi-Earth® planting medium (Scotts Company, 14111 Scottslawn Road, Marysville, Ohio 43041) comprising spaghnum peat moss, vermiculite, wetting agent and starter nutrients and treated with postemergence applications of test chemicals formulated in the same manner. Plants ranged in height from 2 to 18 cm (1- to 4-leaf stage) for postemergence treatments. Treated plants and controls were maintained in a greenhouse for 13 to 15 days, after which time all species were compared to controls and visually evaluated. Plant response ratings, summarized in Table C, are based on a scale of 0 to 100 where 0 is no effect and 100 is complete control. A dash (-) response means no test result.
# waterhemp = assay: Test C preemergence; assay type: in vivo, Amaranthus rudis
# Excerpt: as §4, §5
# [6] = 31 g ai/ha, 0 to 100 scale where 0 is no effect and 100 is complete control, visual, approximately 10 days
# [7] = 31 g ai/ha, 0 to 100 scale, 0 no effect, 100 complete control
# [8] = 125 g ai/ha, 0 to 100 scale, 0 no effect, 100 complete control
# [9] = 16 g ai/ha, preemergence, scale 0 to 100 (0 no effect, 100 complete control)
# [10] = 125 g ai/ha, preemergence, scale 0 (no effect) to 100 (complete control)
# [11] = Preemergence, 62 g ai/ha, scale 0 to 100, 0 no effect, 100 complete control
# [12] = 125 g ai/ha, 0 to 100 scale where 0 is no effect and 100 is complete control
# [13] = 500 g ai/ha, 0 to 100 scale where 0 is no effect and 100 is complete control
# [14] = 62 g ai/ha, preemergence, scale 0 (no effect) to 100 (complete control)
smiles,measurement,setting,value
FCc1cccc(Oc2ncc(Cl)cn2)c1-n1cc(Cl)cn1 [Compound 250],"Plant response rating, Pigweed",pigweed [1]; [6],80
same,Pigweed plant response rating (0 to 100 scale),pigweed [1]; 125 g ai/ha,100
same,"Plant response rating, Barnyardgrass",barnyardgrass [2]; [7],10
same,"Plant response rating, Barnyardgrass",barnyardgrass [2]; [8],60
same,"Plant response rating, Pigweed",pigweed [3]; [7],60
same,"Plant response rating, Pigweed",pigweed [3]; [8],90
same,"Plant response rating, Rice",rice,0
same,"Plant response rating, Barnyardgrass",barnyardgrass [4],0
same,Wheat plant response rating,"wheat, winter; [9]",0
same,Wheat plant response rating,"wheat, winter; [10]",0
same,"Plant response rating, Wheat","wheat, winter; [11]",0
same,Morningglory plant response rating,morningglory; [9],0
same,Morningglory plant response rating,morningglory; [10],50
same,"Plant response rating, Morningglory",morningglory; [11],50
same,Soybean plant response rating,soybean; [10],90
same,"Plant response rating, Soybean",soybean; [11],65
same,Barnyardgrass plant response rating,barnyardgrass [5]; [9],5
same,Barnyardgrass plant response rating,barnyardgrass [5]; [10],100
same,"Plant response rating, Barnyardgrass",barnyardgrass [5]; [11],50
same,Waterhemp plant response rating,waterhemp; [9],85
same,Waterhemp plant response rating,waterhemp; [10],100
same,"Plant response rating, Waterhemp",waterhemp; [11],100
Fc1cccc(Oc2ncc(Cl)cn2)c1-n1cc(OCC(F)(F)F)cn1 [Compound 270],"Plant response rating, Pigweed",pigweed [1]; [6],100
same,Pigweed plant response rating (0 to 100 scale),pigweed [1]; 125 g ai/ha,100
same,"Plant response rating, Barnyardgrass",barnyardgrass [2]; [7],10
same,"Plant response rating, Barnyardgrass",barnyardgrass [2]; [8],80
same,"Plant response rating, Pigweed",pigweed [3]; [7],60
same,"Plant response rating, Pigweed",pigweed [3]; [8],100
same,"Plant response rating, Rice",rice,0
same,"Plant response rating, Barnyardgrass",barnyardgrass [4],35
same,Wheat plant response rating,"wheat, winter; [9]",0
same,Wheat plant response rating,"wheat, winter; [10]",5
same,"Plant response rating, Wheat","wheat, winter; [11]",0
same,Morningglory plant response rating,morningglory; [9],0
same,Morningglory plant response rating,morningglory; [10],100
same,"Plant response rating, Morningglory",morningglory; [11],55
same,Soybean plant response rating,soybean; [9],0
same,Soybean plant response rating,soybean; [10],85
same,"Plant response rating, Soybean",soybean; [11],25
same,Barnyardgrass plant response rating,barnyardgrass [5]; [9],0
same,Barnyardgrass plant response rating,barnyardgrass [5]; [10],100
same,"Plant response rating, Barnyardgrass",barnyardgrass [5]; [11],90
same,Waterhemp plant response rating,waterhemp; [9],80
same,Waterhemp plant response rating,waterhemp; [10],100
same,"Plant response rating, Waterhemp",waterhemp; [11],100
COc1cnn(-c2c(C#N)cccc2Oc2ncc(Cl)cn2)c1 [Compound 137],"Plant response rating, Pigweed",pigweed [1]; [12],90
same,Pigweed plant response rating,pigweed [1]; [13],100
same,Barnyardgrass plant response rating,barnyardgrass [2]; [12],0
same,"Plant response rating, Barnyardgrass",barnyardgrass [2]; [13],100
same,Pigweed plant response rating,pigweed [3]; [12],70
same,"Plant response rating, Pigweed",pigweed [3]; [13],100
same,"Plant response rating, Rice",rice,0
same,"Plant response rating, Barnyardgrass",barnyardgrass [4],0
same,Wheat plant response rating,"wheat, winter; [9]",0
same,Wheat plant response rating,"wheat, winter; [14]",0
same,Wheat plant response rating,"wheat, winter; [10]",0
same,Morningglory plant response rating,morningglory; [9],25
same,Morningglory plant response rating,morningglory; [14],45
same,Morningglory plant response rating,morningglory; [10],90
same,Soybean plant response rating,soybean; [9],10
same,Soybean plant response rating,soybean; [14],80
same,Soybean plant response rating,soybean; [10],85
same,Barnyardgrass plant response rating,barnyardgrass [5]; [9],0
same,Barnyardgrass plant response rating,barnyardgrass [5]; [14],10
same,Barnyardgrass plant response rating,barnyardgrass [5]; [10],40
same,"Plant response rating, Barnyardgrass","barnyardgrass [5]; Preemergence, 31 g ai/ha, scale 0 to 100, 0 no effect, 100 complete control",5
same,Waterhemp plant response rating,waterhemp; [9],100
same,Waterhemp plant response rating,waterhemp; [14],95
same,Waterhemp plant response rating,waterhemp; [10],100
"N#Cc1cccc(Oc2ncc(Cl)cn2)c1-n1cnc(C(F)(F)F)c1 [Compound 252, 3-[(5-chloro-2-pyrimidinyl)oxy]-2-[4-(trifluoromethyl)-1H-imidazol-1-yl]benzonitrile]",Pigweed plant response rating (0 to 100 scale),pigweed [1]; 125 g ai/ha,100
same,pest or weed control at 31 g/ha,"pigweed [1]; Amaranthus retroflexus, pre-emergence, 240 h, 31 g ai/ha, 0 to 100 scale where 0 is no effect and 100 is complete control, visual, approximately 10 days, read-out: Plant response rating, Pigweed",100%
same,pest or weed control at 500 g/ha,"pigweed [1]; Amaranthus retroflexus, pre-emergence, 240 h, 500 g ai/ha, 0 to 100 scale where 0 is no effect and 100 is complete control, read-out: Pigweed plant response rating",100%
same,pest or weed control at 31 g/ha,"barnyardgrass [2]; Echinochloa crus-galli, post-emergence, 240 h, 31 g ai/ha, 0 to 100 scale, 0 no effect, 100 complete control, read-out: Plant response rating, Barnyardgrass",20%
same,pest or weed control at 125 g/ha,"barnyardgrass [2]; Echinochloa crus-galli, post-emergence, 240 h, 125 g ai/ha, 0 to 100 scale, 0 no effect, 100 complete control, read-out: Plant response rating, Barnyardgrass",100%
same,pest or weed control at 500 g/ha,"barnyardgrass [2]; Echinochloa crus-galli, post-emergence, 240 h, 500 g ai/ha, 0 to 100 scale where 0 is no effect and 100 is complete control, read-out: Plant response rating, Barnyardgrass",100%
same,pest or weed control at 31 g/ha,"pigweed [3]; Amaranthus retroflexus, post-emergence, 31 g ai/ha, 0 to 100 scale, 0 no effect, 100 complete control, read-out: Plant response rating, Pigweed",80%
same,pest or weed control at 125 g/ha,"pigweed [3]; Amaranthus retroflexus, post-emergence, 125 g ai/ha, 0 to 100 scale, 0 no effect, 100 complete control, read-out: Plant response rating, Pigweed",100%
same,pest or weed control at 500 g/ha,"pigweed [3]; Amaranthus retroflexus, post-emergence, 500 g ai/ha, 0 to 100 scale where 0 is no effect and 100 is complete control, read-out: Plant response rating, Pigweed",100%
same,plant injury at 250 g/ha,"rice; Oryza sativa, read-out: Plant response rating, Rice",0%
same,pest or weed control at 250 g/ha,"barnyardgrass [4]; Echinochloa crus-galli, read-out: Plant response rating, Barnyardgrass",40%
same,plant injury at 16 g/ha,"wheat, winter; Triticum aestivum, pre-emergence, 16 g ai/ha, preemergence, scale 0 to 100 (0 no effect, 100 complete control), read-out: Wheat plant response rating",0%
same,plant injury at 125 g/ha,"wheat, winter; Triticum aestivum, pre-emergence, 125 g ai/ha, preemergence, scale 0 (no effect) to 100 (complete control), read-out: Wheat plant response rating",45%
same,plant injury at 62 g/ha,"wheat, winter; Triticum aestivum, pre-emergence, Preemergence, 62 g ai/ha, scale 0 to 100, 0 no effect, 100 complete control, read-out: Plant response rating, Wheat",0%
same,pest or weed control at 16 g/ha,"morningglory; Ipomoea, pre-emergence, 16 g ai/ha, preemergence, scale 0 to 100 (0 no effect, 100 complete control), read-out: Morningglory plant response rating",45%
same,pest or weed control at 125 g/ha,"morningglory; Ipomoea, pre-emergence, 125 g ai/ha, preemergence, scale 0 (no effect) to 100 (complete control), read-out: Morningglory plant response rating",100%
same,pest or weed control at 62 g/ha,"morningglory; Ipomoea, pre-emergence, Preemergence, 62 g ai/ha, scale 0 to 100, 0 no effect, 100 complete control, read-out: Plant response rating, Morningglory",95%
same,plant injury at 16 g/ha,"soybean; Glycine max, pre-emergence, 16 g ai/ha, preemergence, scale 0 to 100 (0 no effect, 100 complete control), read-out: Soybean plant response rating",65%
same,plant injury at 125 g/ha,"soybean; Glycine max, pre-emergence, 125 g ai/ha, preemergence, scale 0 (no effect) to 100 (complete control), read-out: Soybean plant response rating",98%
same,plant injury at 62 g/ha,"soybean; Glycine max, pre-emergence, Preemergence, 62 g ai/ha, scale 0 to 100, 0 no effect, 100 complete control, read-out: Plant response rating, Soybean",95%
same,pest or weed control at 16 g/ha,"barnyardgrass [5]; Echinochloa crus-galli, pre-emergence, 16 g ai/ha, preemergence, scale 0 to 100 (0 no effect, 100 complete control), read-out: Barnyardgrass plant response rating",10%
same,pest or weed control at 125 g/ha,"barnyardgrass [5]; Echinochloa crus-galli, pre-emergence, 125 g ai/ha, preemergence, scale 0 (no effect) to 100 (complete control), read-out: Barnyardgrass plant response rating",100%
same,pest or weed control at 62 g/ha,"barnyardgrass [5]; Echinochloa crus-galli, pre-emergence, Preemergence, 62 g ai/ha, scale 0 to 100, 0 no effect, 100 complete control, read-out: Plant response rating, Barnyardgrass",100%
same,pest or weed control at 16 g/ha,"waterhemp; Amaranthus tuberculatus, pre-emergence, 16 g ai/ha, preemergence, scale 0 to 100 (0 no effect, 100 complete control), read-out: Waterhemp plant response rating",100%
same,pest or weed control at 125 g/ha,"waterhemp; Amaranthus tuberculatus, pre-emergence, 125 g ai/ha, preemergence, scale 0 (no effect) to 100 (complete control), read-out: Waterhemp plant response rating",100%
same,pest or weed control at 62 g/ha,"waterhemp; Amaranthus tuberculatus, pre-emergence, Preemergence, 62 g ai/ha, scale 0 to 100, 0 no effect, 100 complete control, read-out: Plant response rating, Waterhemp",100%

# Reference: patent publication US9695155B2, “Herbicidal substituted pyrimidinyloxy benzene compounds” (E. I. DU PONT DE NEMOURS AND COMPANY, priority 2013, dated 2017)
